Test results taken from PMC12267702, “Harvest time and soil-plant relationship effects on phytochemical constituency and biological activities of psidium guajava L. leaves” (Scientific Reports, 2025).
Marks after values point to notes of the source that are not given here.

What was measured:
Format in all cases: biochemical
α-amylase = α-amylase inhibition (in vitro anti-diabetic activity)
Source text: (§1) The anti-diabetic effects of the ethyl acetate fraction from dried P. guajava leaves, collected in March and August, were compared in vitro. This comparison involved measuring the inhibition of carbohydrate hydrolyzing enzymes, including α-amylase, α-glucosidase, and β-galactosidase, as detailed in Naguib et al.[28].

α-glucosidase = α-glucosidase inhibition (in vitro anti-diabetic activity)
Source text: as §1

β-galactosidase = β-galactosidase inhibition (in vitro anti-diabetic activity)
Source text: as §1

[1] = DPPH free radical scavenging assay
Method: (§2) Two distinct antioxidant assays were performed to evaluate the radical scavenging potential of the ethyl acetate fraction obtained from dried P. guajava leaves collected in March and August. […] Ascorbic acid served as the reference standard.

[2] = ABTS free radical scavenging assay
Method: as §2

[3] = target: T1, 5-LOX enzyme (human recombinant) (Homo sapiens, UniProt P09917); test: 5-LOX enzyme inhibition assay (5-LOX kit)
T1 construct: purchased Sigma-Aldrich
T1 sequence (P09917 1-674): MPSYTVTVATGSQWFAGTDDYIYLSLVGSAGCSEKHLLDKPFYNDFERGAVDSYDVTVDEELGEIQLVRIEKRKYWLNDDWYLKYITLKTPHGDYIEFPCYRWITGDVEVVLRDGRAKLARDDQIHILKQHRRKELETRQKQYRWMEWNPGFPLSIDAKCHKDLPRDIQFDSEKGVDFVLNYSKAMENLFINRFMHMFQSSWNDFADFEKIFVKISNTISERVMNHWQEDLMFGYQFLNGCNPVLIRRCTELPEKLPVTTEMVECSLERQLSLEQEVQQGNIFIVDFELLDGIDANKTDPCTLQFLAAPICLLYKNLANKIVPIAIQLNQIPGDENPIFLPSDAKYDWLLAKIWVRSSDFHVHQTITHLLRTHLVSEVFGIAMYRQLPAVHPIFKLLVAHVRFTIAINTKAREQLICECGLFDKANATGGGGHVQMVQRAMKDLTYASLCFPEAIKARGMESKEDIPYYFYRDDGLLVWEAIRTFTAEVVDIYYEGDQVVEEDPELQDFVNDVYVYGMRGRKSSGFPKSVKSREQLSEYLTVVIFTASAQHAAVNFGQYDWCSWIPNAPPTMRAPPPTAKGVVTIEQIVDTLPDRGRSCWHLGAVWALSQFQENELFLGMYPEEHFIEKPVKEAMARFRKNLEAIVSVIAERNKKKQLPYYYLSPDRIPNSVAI

Compound: C[C@H]1O[C@H](O[C@H]2[C@H](O)[C@@H](O)[C@@H](O[C@H]3[C@H](O)[C@@H](O)C(O)O[C@@H]3CO)O[C@@H]2CO)[C@H](O)[C@@H](O)[C@@H]1N[C@H]1C=C(CO)[C@@H](O)[C@H](O)[C@H]1O (stereo partly drawn) [Acarbose]
- α-amylase Inhibition % (α-amylase; 10 µg/mL): 38.57 ± 0.17^e %
- α-amylase Inhibition % (α-amylase; 50 µg/mL): 79.54 ± 0.12^d %
- α-amylase Inhibition % (α-amylase; 100 µg/mL): 86.31 ± 0.09^f %
- α-glucosidase Inhibition % (α-glucosidase; 10 µg/mL): 41.89 ± 0.10^c %
- α-glucosidase Inhibition % (α-glucosidase; 50 µg/mL): 80.36 ± 0.08^d %
- α-glucosidase Inhibition % (α-glucosidase; 100 µg/mL): 89.57 ± 0.15^f %
- β-galactosidase Inhibition % (β-galactosidase; 10 µg/mL): 43.78 ± 0.12^e %
- β-galactosidase Inhibition % (β-galactosidase; 50 µg/mL): 83.72 ± 0.09^f %
- β-galactosidase Inhibition % (β-galactosidase; 100 µg/mL): 91.40 ± 0.10^g %

Compound: O=C1O[C@H]([C@@H](O)CO)C(O)=C1O [Ascorbic acid]
- DPPH Inhibition percentages (%) ([1]; 10 µg/ml): 73.12 ± 0.15^g %
- DPPH Inhibition percentages (%) ([1]; 50 µg/ml): 82.47 ± 0.13^h %
- DPPH Inhibition percentages (%) ([1]; 100 µg/ml): 90.52 ± 0.09^i %
- ABTS Inhibition percentages (%) ([2]; 10 µg/ml): 76.02 ± 0.11^g %
- ABTS Inhibition percentages (%) ([2]; 50 µg/ml): 81.43 ± 0.08^h %
- ABTS Inhibition percentages (%) ([2]; 100 µg/ml): 87.26 ± 0.13^i %

Compound: CC(c1cc2ccccc2s1)N(O)C(N)=O (stereo not drawn) [Zileuton]
- inhibition at 1 µg/mL ([3]; 1 µg/ml): 40.62 ± 0.08%
- inhibition at 10 µg/mL ([3]; 10 µg/ml): 61.39 ± 0.14%
- inhibition at 100 µg/mL ([3]; 100 µg/ml): 79.42 ± 0.13%
